Reference: ChEMBL document CHEMBL4673190, “Recent developments in anticancer kinase inhibitors based on the pyrazolo[3,4-d]pyrimidine scaffold” (RSC Med Chem, 2020)

Tests used:
[1] = target: Cyclin-dependent kinase 2/cyclin E1 (Homo sapiens, UniProt P24941); assay: Inhibition of CDK2/cyclin E (unknown origin) expressed in baculovirus infected Sf21 insect cells using histone H1 as substrate in presence of [gamma33P]ATP
[2] = target: Vascular endothelial growth factor receptor 2 (Homo sapiens, UniProt P35968); assay: Inhibition of N-terminal GST-tagged human VEGFR2 (805 to 1356 residues) expressed in a baculovirus infected Sf9 insect cell incubated for 45 mins by Kinase-Glo max reagent-based luminescence assay
MCF7 = assay: Cytotoxicity against human MCF-7 cells incubated for 72 hrs by MTT assay; format: functional, cell-based; details: MCF7, 72 h
A549 = assay: Cytotoxicity against human A549 cells incubated for 72 hrs by MTT assay; format: functional, cell-based; details: A549, 72 h
HepG2 = assay: Cytotoxicity against human HepG2 cells incubated for 72 hrs by MTT assay; format: functional, cell-based; details: HepG2, 72 h
[3] = target: T1, Tyrosine-protein kinase JAK3 (Homo sapiens, UniProt P52333); assay: Inhibition of JAK3 (unknown origin)
T1 sequence (P52333 whole entry): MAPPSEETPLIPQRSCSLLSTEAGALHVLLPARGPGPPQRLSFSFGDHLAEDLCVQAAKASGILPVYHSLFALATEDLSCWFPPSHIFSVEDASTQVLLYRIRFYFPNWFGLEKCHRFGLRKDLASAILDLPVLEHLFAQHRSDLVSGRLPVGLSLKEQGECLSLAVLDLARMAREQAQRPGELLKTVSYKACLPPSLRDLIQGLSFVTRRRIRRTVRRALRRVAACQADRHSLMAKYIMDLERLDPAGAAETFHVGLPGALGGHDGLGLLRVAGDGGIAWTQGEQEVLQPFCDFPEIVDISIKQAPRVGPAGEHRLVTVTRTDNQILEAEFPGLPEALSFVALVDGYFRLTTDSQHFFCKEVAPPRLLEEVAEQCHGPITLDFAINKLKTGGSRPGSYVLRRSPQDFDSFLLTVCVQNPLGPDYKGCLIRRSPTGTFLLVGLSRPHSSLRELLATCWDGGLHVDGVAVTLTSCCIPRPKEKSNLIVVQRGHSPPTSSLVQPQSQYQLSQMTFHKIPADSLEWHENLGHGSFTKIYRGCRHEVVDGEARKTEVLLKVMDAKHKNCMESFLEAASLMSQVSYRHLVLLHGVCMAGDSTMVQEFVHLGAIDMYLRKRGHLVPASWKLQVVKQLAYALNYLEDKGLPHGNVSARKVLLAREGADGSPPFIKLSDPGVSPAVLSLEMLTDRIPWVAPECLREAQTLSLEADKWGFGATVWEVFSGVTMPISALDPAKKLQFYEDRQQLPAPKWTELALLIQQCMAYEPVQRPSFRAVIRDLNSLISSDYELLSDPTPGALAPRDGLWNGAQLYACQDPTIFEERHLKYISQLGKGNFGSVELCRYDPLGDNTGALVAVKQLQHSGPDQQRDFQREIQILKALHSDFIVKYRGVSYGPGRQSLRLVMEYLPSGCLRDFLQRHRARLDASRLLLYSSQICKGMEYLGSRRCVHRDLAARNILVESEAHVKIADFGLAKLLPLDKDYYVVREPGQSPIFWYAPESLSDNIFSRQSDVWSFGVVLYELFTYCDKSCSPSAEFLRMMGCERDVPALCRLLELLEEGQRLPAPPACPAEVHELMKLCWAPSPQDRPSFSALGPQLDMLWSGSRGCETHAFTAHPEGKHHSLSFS

Homo sapiens [4] = organism: Homo sapiens; assay: Selectivity index, ratio of IC50 for human JAK2 expressed in baculovirus expression system to IC50 for human JAK3 expressed in baculovirus expression system
Homo sapiens [5] = organism: Homo sapiens; assay: Selectivity index, ratio of IC50 for human JAK1 expressed in baculovirus expression system to IC50 for human JAK3 expressed in baculovirus expression system

Sequence of Vascular endothelial growth factor receptor 2 (P35968 whole entry, the tested form may be a part): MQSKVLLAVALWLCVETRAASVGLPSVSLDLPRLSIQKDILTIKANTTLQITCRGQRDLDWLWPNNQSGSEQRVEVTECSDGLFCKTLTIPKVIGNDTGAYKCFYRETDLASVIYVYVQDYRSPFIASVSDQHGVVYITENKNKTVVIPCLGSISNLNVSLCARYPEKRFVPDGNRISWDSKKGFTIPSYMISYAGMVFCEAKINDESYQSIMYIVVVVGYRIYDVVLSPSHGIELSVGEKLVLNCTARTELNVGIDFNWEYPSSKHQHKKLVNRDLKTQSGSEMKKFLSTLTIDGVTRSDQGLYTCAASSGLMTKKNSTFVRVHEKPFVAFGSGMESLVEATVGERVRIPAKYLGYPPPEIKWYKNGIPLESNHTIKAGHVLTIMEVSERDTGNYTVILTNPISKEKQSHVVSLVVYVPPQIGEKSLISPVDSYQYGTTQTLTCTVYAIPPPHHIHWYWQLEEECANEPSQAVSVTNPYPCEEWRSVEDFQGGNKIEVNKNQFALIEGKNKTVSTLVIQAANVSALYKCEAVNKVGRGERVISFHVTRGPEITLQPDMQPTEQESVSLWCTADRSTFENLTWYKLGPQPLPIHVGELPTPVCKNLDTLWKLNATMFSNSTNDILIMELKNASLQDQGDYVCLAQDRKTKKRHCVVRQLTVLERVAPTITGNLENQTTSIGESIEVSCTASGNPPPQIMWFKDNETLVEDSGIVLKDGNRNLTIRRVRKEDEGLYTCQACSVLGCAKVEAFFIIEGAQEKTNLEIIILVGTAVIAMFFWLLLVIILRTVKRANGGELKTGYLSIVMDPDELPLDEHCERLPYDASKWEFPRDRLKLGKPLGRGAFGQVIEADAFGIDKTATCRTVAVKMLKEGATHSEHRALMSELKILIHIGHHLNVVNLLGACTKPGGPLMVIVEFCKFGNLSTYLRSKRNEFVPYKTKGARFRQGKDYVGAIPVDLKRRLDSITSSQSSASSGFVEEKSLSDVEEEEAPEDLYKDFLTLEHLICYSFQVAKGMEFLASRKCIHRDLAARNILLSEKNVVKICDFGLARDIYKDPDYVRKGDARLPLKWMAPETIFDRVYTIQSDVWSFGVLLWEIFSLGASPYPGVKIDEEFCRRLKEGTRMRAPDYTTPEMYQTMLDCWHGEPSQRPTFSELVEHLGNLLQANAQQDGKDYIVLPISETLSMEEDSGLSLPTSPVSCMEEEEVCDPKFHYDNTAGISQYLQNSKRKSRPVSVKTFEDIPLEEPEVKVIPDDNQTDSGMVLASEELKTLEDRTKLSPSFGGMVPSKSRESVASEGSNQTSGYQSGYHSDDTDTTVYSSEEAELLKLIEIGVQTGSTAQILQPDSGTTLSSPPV

Question: How did the IC50 [1] turn out when `O=[N+]([O-])c1cccc(Nc2nc(SCCc3ccccc3)nc3[nH]ncc23)c1` was run?
Answer: 5.1 µM

Question: With `COc1ccc(-n2nc(C)c3c(Nc4ccc(NC(=O)Nc5ccc(Cl)c(C(F)(F)F)c5)cc4)ncnc32)cc1` as the molecule, how does the IC50 [2] read?
Answer: 0.22 µM

Question: For `Cc1c(C(=O)Nc2ccc(Oc3ncnc4c3cnn4C)c(F)c2)nnn1-c1ccc(F)cc1`, which EC50 (MCF7) is on record?
Answer: ≤ 10 µM

Question: What about the EC50 (A549) of the same molecule?
Answer: ≤ 10 µM

Question: What about the EC50 (HepG2) of the same molecule?
Answer: ≤ 10 µM

Question: Which IC50 [3] does the source give for `C[C@@H]1CCN(C(=O)CC#N)C[C@@H]1N(C)c1ncnc2[nH]ncc12` here?
Answer: 0.0016 µM

Question: How did the Ratio IC50 (Homo sapiens [4]) turn out when `C=CC(=O)Nc1cccc(Cn2ncc3cnc(Nc4cnn(CCOC)c4)nc32)c1` was run?
Answer: > 376

Question: And the Ratio IC50 (Homo sapiens [5])?
Answer: > 376

Question: `O=C(Oc1nc(SCCc2ccccc2)nc2[nH]ncc12)c1cc2ccccc2o1` was tested. Which IC50 [1] did it give?
Answer: 6.8 µM
